{"source": "patent US9763908B2", "about": "“Composition containing monoacetyldiglyceride compound as active ingredient for preventing or treating atopic dermatitis” (ENZYCHEM LIFESCIENCES CORPORATION, priority 2013, dated 2017)", "key": {"[1]": {"test_system": "IgE", "experiment": "IgE level in serum (ELISA) of mice with DNCB-induced atopic dermatitis after oral EC-18", "format": "in vivo, mouse", "method": "(§1) DNCB (1-Chloro-2,4-dinitrobenzene, Sigma Aldrich) was diluted to 0.2% by the solvent in which olive oil and acetone were mixed in a ratio of 1:4. Diluted DNCB was applied onto back of each 7-week-old Balb/c mouse whose hairs on back were removed. During the first week application was made seven times continuously, and from the second week, application was made every two days to induce atopy.\nUsing the serum separated from the mouse blood, was measured the expression levels of IgE in the ELISA method as shown in Experimental Example 1. In IgE ELISA for the mouse, IgE capture antibody (BD bioscience) was diluted with 1×PBS to 2 μg/ml, dispensed to each of 96-well plate (Thermo) by 200 μl, coated for 12 hours, washed using a wash buffer in which 0.05% tween 20 was diluted in 1×PBS. After washing three times, 1% BSA was dispensed to each well by 200 μl and blocking buffer was placed for 1 hour at room temperature (RT) conditions, and then final washing was performed._Thereafter, the serum obtained from the mice was dispensed to each well by 100 μl, and the wells were placed for reaction at room temperature for 1 hours after dispensing, and unreacted IgE is washed under the same conditions. […] When the color development is completed, the stop solution (2N H2SO4+DW) was dispensed by 50 μl, and the amount of color development at 450 nm wavelength was measured. […]"}, "[2]": {"test_system": "IL-4", "experiment": "IL-4 level in serum (ELISA) of mice with DNCB-induced atopic dermatitis after oral EC-18", "format": "in vivo, mouse", "method": "as §1\nA mixture of EC-18 and olive oil was orally administrated to the mouse 7 times during the first week by 100 μl each time in dose of 2 mq/rat, and after then, for 11 times, was administered orally by 100 μl each time in dose of 1 mg/rat, that is the mixture was orally administrated totally 18 times. For the measurement of IL-4, blood was collected from veins under the eyes of mice treated, through ocular blood (Eye bleeding) method. […] After collecting the blood of about 350 μl in the EP tube, the blood was centrifuged to separate only serum and IL-4 present in the serum was analyzed by ELISA (enzyme-linked immunosorbent assay) method. […] When the color development is completed, the stop solution (2N H2SO4+DW) was dispensed by 100 μl, and the amount of color development at 450 nm wavelength was measured at ELISA Reader. […]"}, "[3]": {"test_system": "IL-4", "experiment": "IL-4 from ConA-activated lymphocytes of normal healthy people given EC-18 for four weeks (ELISA)", "format": "in vivo, human", "method": "(§2) EC-18 was administered to the normal healthy people (36 people) four weeks. EC-18 Lymphocytes separated from the blood before administration and after administration were incubated with ConA (concanavalin A). In order to measure the cytokine (IFN-γ and IL-4) which is separated from the lymphocyte (T cell) activated by Con A, culture medium was incubated for 42 hours, and were stored frozen. Purified antibody (capture antibody) of cytokine to be measured was dispensed to well (Nunc-immuno module, polysorp) by 0.2 μg/well, and left overnight at 4° C. to coat antigen. After well washing, blocking buffer (1% bovine serum albumin) treatment was performed for about 1 hour to inhibit the nonspecific binding. After washing the well, a cell culture solution was placed into each well and the antibody was combined with coating antigen for 2 hours. […] After approximately 10-30 minutes, stop solution was added into the well and absorbance at 450-570 nm was measured with Automatic Microplate reader (Molecular Devices, CA, USA). In the same manner, absorbance according to cytokine solution concentration was measured to plot standard curve, and the amount of cytokine contained in the sample was calculated by substituting the absorbance of the sample group. The change amount of cytokine calculated in this manner and significance (P<0.05) were shown in flowing Table 1 and FIGS. 5-6."}, "[4]": {"test_system": "sepsis animal model", "conditions": "cecal-ligation-puncture sepsis model; stated as known; cited from earlier work"}, "[5]": {"conditions": "GLP toxicity test; stated as known; cited from earlier work"}, "[6]": {"test_system": "atopic symptoms in patients", "experiment": "Observation of atopic symptom alleviation in patients with atopic", "format": "in vivo, human", "conditions": "500 mg/day; 2 weeks (severe symptoms) or 2 days (mild skin rash); FIGS. 7 and 8", "method": "To patients with severe atopic symptoms, the EC-18 was administrated every day at a dose of 500 mg/day for 2 weeks and atopic symptoms change which was taken were shown in FIG. 7. To a patient having a mild skin rash, the EC-18 was administrated every day at a dose of 500 mg/day for 2 days and atopic symptoms change which was taken were shown in FIG. 8."}, "[7]": {"test_system": "DNCB-induced atopic dermatitis in Balb/c mouse", "experiment": "Visual inspection of the degree of atopic disease in the DNCB-induced mouse model", "format": "in vivo", "conditions": "score 0 to 12", "method": "as §1\nAtopic disease models commonly used in the laboratory is a technique that induces contact Hypersensitivity (CHS) by sensitization to DNCB (1-Chloro-2,4-dinitro-benzene). This technique is a technique of inducing atopic by diluting DNCB with a solvent in which acetone and olive oil are mixed in a ratio of 4:1 to be 0.2%, and then smearing the diluted on the skin, and is for the experiment for adjusting and maintaining the expression time so that artificially severe atopy-like appearance appears could be observed two weeks after the smearing. The degree of atopic disease was evaluated by dividing the state of erythema/emorrhage, scarring/dryness, edema), excoriation/erosion which are induced on the skin, respectively into three steps (0=null, 1=mild, 2=moderate, 3=severe) and then assigning the score up to 12 from zero. It was induced in the experimental group and the control group that the time when severe atopic status ((visual inspection index of 10) is reached was two weeks after the smearing of DNCB. Further, in order to maintain this condition, after two weeks, DNCB smearing was performed every two days.\nFIG. 4 is a photograph showing the degree of atopic disease for 3 weeks in mice of the EC-18 administration group (test group) and the mice of olive oil administration group (control group). […] In contrast, in the test group the administration of EC-18, visual inspection index was changed to 1 point after one week, 8 points after two weeks and 3 points after three weeks."}, "[8]": {"test_system": "IFN-γ", "experiment": "IFN-γ from ConA-activated lymphocytes of normal healthy people given EC-18 for four weeks (ELISA)", "format": "in vivo, human", "method": "as §2"}, "[9]": {"conditions": "DNCB-induced atopic dermatitis model animals"}}, "data": [{"smiles": "CCCCC/C=C\\C/C=C\\CCCCCCCC(=O)OC(COC(C)=O)COC(=O)CCCCCCCCCCCCCCC", "note": "(centres unmarked) [EC-18, 1-palmitoyl-2-linoleoyl-3-acetylglycerol]", "values": [{"measurement": "IgE level compared to the untreated group (olive oil treatment group), in words", "setting": "[1]; [9]", "result": "significantly decreased"}, {"measurement": "reduction of IgE level", "setting": "[1]; serum, two weeks vs one week after administration, oral EC-18, olive oil control approximately 22%", "result": "about 50%"}, {"measurement": "IL-4 level compared to the untreated group (olive oil treatment group), in words", "setting": "[2]; [9]", "result": "significantly decreased"}, {"measurement": "reduction of IL-4 level", "setting": "[2]; serum, two weeks vs one week after administration, oral EC-18 in olive oil, olive oil control approximately 50%", "result": 80, "unit": "%"}, {"measurement": "IL-4 after EC-18 administration", "setting": "[3]; N = 36, four weeks of administration, before administration 246.6 ± 186.9, P <0.001", "result": "96.1 ± 64.2", "unit": "pg/mL"}, {"measurement": "expression level of Th2 cytokine (IL-4), in words", "setting": "[3]; normal subjects, 4 weeks, FIG. 5", "result": "reduced the expression levels of Th2 cytokine (IL-4)"}, {"measurement": "survivability ratio of animals", "setting": "[4]", "result": "increases survivability ratio of animals"}, {"measurement": "toxicity", "setting": "[5]", "result": "no-toxicity"}, {"measurement": "atopic symptoms change", "setting": "[6]", "result": "the atopic symptoms are relaxed"}, {"measurement": "visual inspection index", "setting": "[7]; after one week, olive oil control 3 points", "result": 1, "unit": "point"}, {"measurement": "visual inspection index", "setting": "[7]; after three weeks, olive oil control 6 points", "result": 3, "unit": "points"}, {"measurement": "visual inspection index", "setting": "[7]; after two weeks, olive oil control 10 points", "result": 8, "unit": "points"}, {"measurement": "IFN-γ after EC-18 administration", "setting": "[8]; N = 36, four weeks of administration, before administration 686.4 ± 162.2, P 0.473", "result": "611.9 ± 209.7", "unit": "pg/mL"}, {"measurement": "expression level of Th1 cytokine (IFN-γ), in words", "setting": "[8]; normal subjects, 4 weeks, FIG. 6", "result": "the change did not occur uniformly"}]}]}
